Assay results from publication PMC11206246, “Cyclosporin A-Based PROTACs Can Deplete Abundant Cellular Cyclophilin A without Suppressing T Cell Activation” (Molecules, 2024).
Where a SMILES comes first, the peptide text is derived from it. The star is where a group is joined. Cbz = O=C(OCc1ccccc1)*

Tests used:
CypA [1] = biological target: T1, CypA (Homo sapiens, UniProt P62937); details: cited from earlier work
CypA [2] = biological target: T1, CypA; assay: Degradation of CypA in HDFn fibroblasts (western blot); type: cell-based; set-up: endogenous in cells; host or cells: primary PBMCs from healthy donors; details: 1 μM epoxomicin, 3 μM MG-132, 1 μM CsA, 10 μM VHL ligand
Protocol: (§1) HeLa cells and primary human dermal fibroblasts isolated from neonatal foreskin (HDFn) were adherent cells and were cultured in commercially available, ready-to-use DMEM ([…], Gibco, Waltham, MA, USA) supplemented with 10% (v/v) FBS (Fetal Bovine Serum, Sigma-Aldrich) and antibiotics (Streptomycin/Penicillin, 1:1000 dilution) in polystyrene culture flasks. Growth conditions for all cell lines were maintained in a humidified chamber at 37 °C and 5% CO2. For subculturing or prior counting, the cells were treated with trypsin-EDTA (Life Technologies GmbH, Carlsbad, CA, USA) to detach them from the surface.
(§2) A total of 5 × 10^5 HeLa cells or HDFn was plated in 6-well plates the day before treatment. […] An amount of 200 μL PROTAC dilutions (0.1 μM and 1.0 μM) in DMSO (final concentration 0.1% (v/v)) were added to the culture medium and incubated at 37.0 °C and 5.0% CO2 for the desired time. As a blank, the cells were incubated with 200 μL DMSO under the same conditions. After the appropriate incubation time, the medium was aspirated, and the cells were washed twice with 1× PBS.
(§3) Cells were lysed in ice-cold 1× Laemmli buffer (100 mM DTT) after two washes with 1× PBS. After denaturation (95 °C for 5 min) and shearing of the DNA by sonication, the samples were loaded on Tricine-SDS-PAGE, electrophoresed, and blotted onto a PVDF membrane. After staining with S-Ponceau staining solution and blocking, the membranes were incubated overnight at 4 °C in primary rabbit anti-CypA antibody (Cell Signaling Technology #2175S, Danvers, MA, USA) and for 1 h at room temperature with secondary antibody (IRDye® 800 CW Goat anti-Rabbit IgG Secondary Antibody, LI-COR). All membranes were then reprobed with rabbit anti-beta actin (Cell Signaling Technology #4967) to ensure equal protein loading. The intensities of the bands on western blot films were quantified using the LI-COR Odyssey Imaging System and the software Image Studio Lite (version 3.1). The CypA values were normalized to β-actin, and DMSO was arbitrarily assigned a value of 100% for comparison purposes.

CypA [3] = biological target: T1, CypA; assay: Degradation of endogenous CypA in HeLa cells (western blot); type: cell-based; set-up: The degradation of endogenous CypA in HeLa cells was investigated; endogenous in cells; host or cells: HeLa; details: 1 μM epoxomicin, 3 μM MG-132, 1 μM CsA, 10 μM VHL ligand
Protocol: as §1, §2, §3

T1 sequence (P62937 whole entry): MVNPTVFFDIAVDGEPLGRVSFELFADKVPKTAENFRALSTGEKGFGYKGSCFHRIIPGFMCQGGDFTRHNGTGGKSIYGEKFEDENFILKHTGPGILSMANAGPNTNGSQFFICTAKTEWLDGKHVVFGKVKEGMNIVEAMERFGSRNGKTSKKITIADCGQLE

## C/C=C/C[C@@H](C)[C@@H](O)[C@H]1C(=O)N[C@@H](CC)C(=O)N(C)[C@H](C)C(=O)N(CC)[C@@H](C(C)C)C(=O)N[C@@H](C(C)C)C(=O)N(C)[C@@H](CC(C)C)C(=O)N[C@@H](C)C(=O)N[C@H](C)C(=O)N(C)[C@@H](CC(C)C)C(=O)N(C)[C@@H](CC(C)C)C(=O)N(C)[C@@H](C(C)C)C(=O)N1C [Alisporivir]
CypA [1]
  CypA inhibitor potency: low nM

## CC[C@H](C)[C@H](NC(=O)[C@H]([C@@H](C)CC)N(C)C(C)=O)C(=O)N[C@H](C(=O)N[C@@H](CC(C)C)C(=O)[C@@]1(C)CO1)[C@@H](C)O [Ep, epoxomicin]
CypA [2]
  effect of 1 h pre-treatment with the substance on CypA degradation by P3 or P5: suppressed
CypA [3]
  effect of 1 h pre-treatment with the substance on CypA degradation by P3 or P5: suppressed

## CC(C)C[C@@H](C=O)NC(=O)[C@H](CC(C)C)NC(=O)[C@H](CC(C)C)NC(=O)OCc1ccccc1 [MG-132] (Cbz-Leu-Leu-Leu-aldehyde)
CypA [2]
  effect of 1 h pre-treatment with the substance on CypA degradation by P3 or P5: suppressed
CypA [3]
  effect of 1 h pre-treatment with the substance on CypA degradation by P3 or P5: suppressed

## Cc1ncsc1-c1ccc(CNC(=O)[C@@H]2C[C@@H](O)CN2C(=O)[C@@H](N)C(C)(C)C)cc1 [VHL ligand 1]
CypA [2]
  effect of 1 h pre-treatment with the substance on CypA degradation by P3 or P5: recovery of CypA band
CypA [3]
  effect of 1 h pre-treatment with the substance on CypA degradation by P3 or P5: recovery of CypA band
